Five molecules from BindingDB's records for doi:10.1021/jm800138h (Gsk, 2008) can be followed below.

Test in all cases: Enzyme Inhibition Assay
One assay addresses Beta-secretase 1 (Homo sapiens, UniProt P56817). To be noted: pH 4.5; 22 °C. Here is the method:
(§1) Enzyme activity and inhibition were assayed using a fluorescent FAM-[SEVNLDAEFK]-TAMRA substrate. Control reactions with no enzyme were included in each assay. Quantification of substrate cleavage was assessed using an LJL analyst spectrophotometer (485nm excitation, 535nm emission).

The target in another assay is T1, Beta-secretase 2 (Homo sapiens, UniProt Q9Y5Z0).
T1 sequence (Q9Y5Z0 whole entry): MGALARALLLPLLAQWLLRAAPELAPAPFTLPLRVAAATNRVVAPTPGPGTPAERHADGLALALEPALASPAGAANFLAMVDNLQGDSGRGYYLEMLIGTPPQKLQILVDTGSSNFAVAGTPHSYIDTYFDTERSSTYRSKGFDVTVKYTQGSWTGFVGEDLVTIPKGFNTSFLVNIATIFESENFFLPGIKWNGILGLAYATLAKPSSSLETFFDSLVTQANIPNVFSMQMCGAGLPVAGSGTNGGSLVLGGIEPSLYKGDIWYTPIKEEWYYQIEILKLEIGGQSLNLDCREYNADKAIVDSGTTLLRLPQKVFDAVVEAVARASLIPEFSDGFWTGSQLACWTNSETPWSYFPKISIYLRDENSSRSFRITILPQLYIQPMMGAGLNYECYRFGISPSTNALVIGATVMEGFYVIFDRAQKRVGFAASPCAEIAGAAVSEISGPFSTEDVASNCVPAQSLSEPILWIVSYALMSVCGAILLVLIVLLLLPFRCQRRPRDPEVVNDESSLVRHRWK
Particulars: pH 4.5; 22 °C. Here is the method:
as §1

In the next assay the target is Cathepsin D (Homo sapiens, UniProt P07339). Here is the method:
as §1

Each structure is given as a SMILES string.

Sequence of Cathepsin D (P07339 65-162 limits assumed): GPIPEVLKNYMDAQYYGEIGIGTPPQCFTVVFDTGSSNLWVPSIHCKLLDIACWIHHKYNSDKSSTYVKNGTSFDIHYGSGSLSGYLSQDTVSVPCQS
Sequence of Cathepsin D (P07339 169-412 limits assumed): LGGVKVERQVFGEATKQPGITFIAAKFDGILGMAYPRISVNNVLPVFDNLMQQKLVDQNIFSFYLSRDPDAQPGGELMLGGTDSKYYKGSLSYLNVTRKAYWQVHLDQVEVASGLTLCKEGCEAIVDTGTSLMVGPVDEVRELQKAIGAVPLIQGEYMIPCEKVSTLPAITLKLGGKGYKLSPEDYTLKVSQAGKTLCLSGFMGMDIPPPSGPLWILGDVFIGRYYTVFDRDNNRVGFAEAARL
Sequence of Beta-secretase 1 (P56817 whole entry): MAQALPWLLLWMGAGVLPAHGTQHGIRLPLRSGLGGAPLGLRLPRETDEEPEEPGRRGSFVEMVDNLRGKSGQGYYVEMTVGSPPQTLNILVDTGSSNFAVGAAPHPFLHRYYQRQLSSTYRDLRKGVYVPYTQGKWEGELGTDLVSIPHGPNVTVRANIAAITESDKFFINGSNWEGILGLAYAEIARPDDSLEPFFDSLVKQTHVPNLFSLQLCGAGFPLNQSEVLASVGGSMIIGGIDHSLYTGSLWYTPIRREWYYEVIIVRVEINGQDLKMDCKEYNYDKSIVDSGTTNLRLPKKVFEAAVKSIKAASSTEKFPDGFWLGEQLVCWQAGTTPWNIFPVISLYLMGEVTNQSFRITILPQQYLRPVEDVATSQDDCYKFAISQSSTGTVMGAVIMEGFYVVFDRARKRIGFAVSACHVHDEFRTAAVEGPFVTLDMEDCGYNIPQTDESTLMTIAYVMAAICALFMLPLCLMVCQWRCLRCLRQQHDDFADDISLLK

What is called IC50 is the midpoint of a concentration-inhibition curve. A low value points to inhibition by little substance. As for `CCNc1cc(C(=O)N[C@@H](Cc2ccccc2)[C@H](O)CNC(C)(C)CCCC(C)C)cc(N2CCCCS2(=O)=O)c1` [N-[(2S,3R)-4-[(2,6-dimethylheptan-2-yl)amino]-3-hydroxy-1-phenylbutan-2-yl]-3-(1,1-dioxo-1,2-thiazinan-2-yl)-5-(ethylamino)benzamide], the IC50 against Beta-secretase 1 turned out to be 0.03 µM; against Beta-secretase 2, 7.94 µM; against Cathepsin D it was 5.25 µM.

Take `CCc1cn2c3c(cc(C(=O)N[C@@H](Cc4ccccc4)[C@H](O)CNC4CCCCC4)cc13)N(C)S(=O)(=O)CC2` [BMCL193669 Compound 26]: the IC50 against Beta-secretase 1 worked out at 0.009 µM; against Beta-secretase 2, 0.21 µM; against Cathepsin D it was 0.66 µM.

`CCNc1cc(C(=O)N[C@@H](Cc2ccccc2)[C@H](O)CNC)cc(N2CCCCS2(=O)=O)c1` [3-(1,1-dioxo-1,2-thiazinan-2-yl)-5-(ethylamino)-N-[(2S,3R)-3-hydroxy-4-(methylamino)-1-phenylbutan-2-yl]benzamide]: the half-maximal inhibitory concentration (IC50) on Beta-secretase 1 was 0.14 µM; against Cathepsin D, greater than 100 µM.

`CCNc1cc(C(=O)N[C@@H](Cc2ccccc2)[C@H](O)CNC2CCCCC2)cc(N2CCCCS2(=O)=O)c1` [N-[(2S,3R)-4-(cyclohexylamino)-3-hydroxy-1-phenylbutan-2-yl]-3-(1,1-dioxo-1,2-thiazinan-2-yl)-5-(ethylamino)benzamide]: the concentration for half-maximal inhibition (IC50) against Beta-secretase 1 stood at 0.069 µM; against Beta-secretase 2, 4.37 µM; against Cathepsin D it was 2.34 µM.

In the case of `CCc1cn2c3c(cc(C(=O)N[C@@H](Cc4ccccc4)[C@H](O)CNC(C)(C)CCCC(C)C)cc13)N(C)S(=O)(=O)CC2` [N-[(2S,3R)-4-[(2,6-dimethylheptan-2-yl)amino]-3-hydroxy-1-phenylbutan-2-yl]-3-ethyl-9-methyl-10,10-dioxo-10-thia-1,9-diazatricyclo[6.4.1.0^{4,13}]trideca-2,4(13),5,7-tetraene-6-carboxamide], the IC50 against Beta-secretase 1 was determined as 0.005 µM; against Beta-secretase 2, 0.114 µM; on Cathepsin D it was 1 µM.
